Active and inactive are the calls of the source. The rule behind the calls is not given here.
Assays:
[1] = target: T1, Histone-lysine N-methyltransferase EHMT2 (Homo sapiens, UniProt Q96KQ7); assay: Inhibition of G9a (unknown origin) by AlphaLISA assay
T1 sequence (Q96KQ7 whole entry): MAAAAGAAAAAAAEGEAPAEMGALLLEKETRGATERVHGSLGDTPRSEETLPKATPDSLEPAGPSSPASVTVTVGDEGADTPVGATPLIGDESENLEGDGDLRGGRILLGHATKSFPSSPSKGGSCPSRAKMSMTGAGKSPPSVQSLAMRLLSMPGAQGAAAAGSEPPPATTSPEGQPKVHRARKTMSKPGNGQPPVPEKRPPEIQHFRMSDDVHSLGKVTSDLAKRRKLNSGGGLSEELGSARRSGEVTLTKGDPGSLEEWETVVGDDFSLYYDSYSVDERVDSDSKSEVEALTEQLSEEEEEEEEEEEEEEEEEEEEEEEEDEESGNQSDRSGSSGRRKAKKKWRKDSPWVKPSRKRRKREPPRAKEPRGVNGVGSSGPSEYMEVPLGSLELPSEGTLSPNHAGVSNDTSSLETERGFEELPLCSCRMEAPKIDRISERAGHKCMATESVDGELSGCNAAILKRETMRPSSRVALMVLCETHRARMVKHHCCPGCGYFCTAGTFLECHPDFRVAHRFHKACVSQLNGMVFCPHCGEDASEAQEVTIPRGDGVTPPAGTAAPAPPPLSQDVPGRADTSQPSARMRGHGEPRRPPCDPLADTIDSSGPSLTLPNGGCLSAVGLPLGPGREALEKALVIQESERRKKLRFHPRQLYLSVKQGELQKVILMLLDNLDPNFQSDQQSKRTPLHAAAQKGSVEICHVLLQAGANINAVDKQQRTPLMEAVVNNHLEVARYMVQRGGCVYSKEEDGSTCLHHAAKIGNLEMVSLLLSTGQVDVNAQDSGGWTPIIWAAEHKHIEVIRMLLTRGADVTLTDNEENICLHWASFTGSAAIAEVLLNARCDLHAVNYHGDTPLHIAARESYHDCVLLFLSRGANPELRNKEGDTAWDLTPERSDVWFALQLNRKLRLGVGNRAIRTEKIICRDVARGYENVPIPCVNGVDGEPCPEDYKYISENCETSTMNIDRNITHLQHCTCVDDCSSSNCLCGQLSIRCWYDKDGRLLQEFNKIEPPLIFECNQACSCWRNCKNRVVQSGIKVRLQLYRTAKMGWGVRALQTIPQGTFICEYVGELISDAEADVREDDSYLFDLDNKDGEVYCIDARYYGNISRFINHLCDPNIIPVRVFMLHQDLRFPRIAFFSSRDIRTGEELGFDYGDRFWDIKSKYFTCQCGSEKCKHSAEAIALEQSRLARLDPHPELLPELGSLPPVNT

PANC-1 = assay: Antiproliferative activity against human PANC-1 cells assessed as cell viability measured after 24 hrs by CCK-8 assay; type: functional, cell-based; settings: PANC-1, 24 h
[2] = Metabolic stability in mouse liver microsomes assessed as half life at 0.1 uM measured upto 60 mins by LC-MS/MS analysis; type: ADME, Microsome
MDA-MB-231 [3] = assay: Antiproliferative activity against human MDA-MB-231 cells assessed as cell viability measured after 24 hrs by CCK-8 assay; type: functional, cell-based; settings: MDA-MB-231, 24 h
[4] = target: T2, Histone-lysine N-methyltransferase EHMT2 (Homo sapiens) (UniProt Q96KQ7); assay: Binding affinity to G9a in human MDA-MB-231 cells assessed as protein stabilization at 37 to 41.7 degC at 10 uM incubated for 15 hrs in presence of G9a antibody by CETSA; type: cell-based
T2 sequence (whole entry): T1 sequence (Q96KQ7 whole entry)

MDA-MB-231 [5] = assay: Reduction in H3K9me2 level in human MDA-MB-231 cells at 10 uM incubated for 48 hrs followed replaced with fresh medium measured after 24 hrs by Western blot analysis; type: functional, cell-based
MDA-MB-231 [6] = assay: Reduction in H3K9me2 level in human MDA-MB-231 cells at 10 uM by Western blot analysis; type: functional, cell-based; settings: time 24-96 hrs, TDE = time-dependent effect
[7] = target: T3, Histone-lysine N-methyltransferase EHMT1 (Homo sapiens, UniProt Q9H9B1); assay: Inhibition of GLP (unknown origin)
T3 sequence (Q9H9B1 whole entry): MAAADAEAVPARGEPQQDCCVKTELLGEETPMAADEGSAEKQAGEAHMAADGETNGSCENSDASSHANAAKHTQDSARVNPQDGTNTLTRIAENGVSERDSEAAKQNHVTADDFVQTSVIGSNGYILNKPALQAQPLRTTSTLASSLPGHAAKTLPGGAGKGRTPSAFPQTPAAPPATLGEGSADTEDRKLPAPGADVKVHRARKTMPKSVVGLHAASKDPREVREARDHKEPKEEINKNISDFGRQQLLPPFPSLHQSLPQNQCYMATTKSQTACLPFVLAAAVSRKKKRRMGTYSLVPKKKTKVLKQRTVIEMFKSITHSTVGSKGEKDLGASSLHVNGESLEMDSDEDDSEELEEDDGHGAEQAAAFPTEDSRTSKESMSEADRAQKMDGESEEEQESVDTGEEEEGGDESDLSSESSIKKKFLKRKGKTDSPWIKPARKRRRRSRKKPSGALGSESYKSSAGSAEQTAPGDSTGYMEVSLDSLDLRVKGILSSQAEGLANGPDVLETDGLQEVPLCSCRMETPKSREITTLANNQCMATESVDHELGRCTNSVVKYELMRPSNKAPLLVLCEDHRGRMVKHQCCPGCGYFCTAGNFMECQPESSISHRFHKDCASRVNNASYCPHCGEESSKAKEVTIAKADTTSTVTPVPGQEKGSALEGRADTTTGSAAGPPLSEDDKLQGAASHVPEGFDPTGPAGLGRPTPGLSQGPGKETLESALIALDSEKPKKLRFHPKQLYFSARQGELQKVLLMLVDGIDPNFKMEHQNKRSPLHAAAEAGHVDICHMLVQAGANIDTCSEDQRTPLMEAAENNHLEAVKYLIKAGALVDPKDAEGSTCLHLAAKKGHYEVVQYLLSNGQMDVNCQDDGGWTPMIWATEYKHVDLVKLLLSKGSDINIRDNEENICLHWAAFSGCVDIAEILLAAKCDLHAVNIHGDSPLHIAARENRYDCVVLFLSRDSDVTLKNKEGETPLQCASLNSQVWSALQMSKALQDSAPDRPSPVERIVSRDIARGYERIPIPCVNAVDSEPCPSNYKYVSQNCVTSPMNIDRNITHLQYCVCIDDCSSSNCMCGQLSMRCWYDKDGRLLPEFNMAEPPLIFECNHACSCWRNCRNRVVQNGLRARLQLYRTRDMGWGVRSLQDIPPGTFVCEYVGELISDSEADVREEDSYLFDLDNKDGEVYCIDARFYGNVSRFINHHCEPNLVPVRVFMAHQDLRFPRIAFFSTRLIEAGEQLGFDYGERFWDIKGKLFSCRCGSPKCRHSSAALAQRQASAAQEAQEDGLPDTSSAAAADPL

[8] = target: T1, Histone-lysine N-methyltransferase EHMT2; assay: Inhibition of human recombinant G9a using H3-SAM as substrate

Structure (SMILES)	IC50 [1]	also measured
COc1cc2c(NC3CCN(C)CC3)cc(CNC(=O)CCl)nc2cc1OCCCN1CCCC1	1.7 nM	
C=CC(=O)N(C)c1nc(NC2CCN(C3CCCCC3)CC2)c2cc(OC)c(OCCCN3CCCC3)cc2n1	3.51 nM	IC50 (PANC-1): 2440 nM; half-life at 0.1 µM [2]: 10 min; IC50 (MDA-MB-231 [3]): 2230 nM
COc1cc2c(NC3CCN(C)CC3)nc(CNC(=O)CC#N)nc2cc1OCCCN1CCCC1	80 nM	
CCC(=O)NCc1cc(NC2CCN(C)CC2)c2cc(OC)c(OCCCN3CCCC3)cc2n1	0.71 nM	
CCC(=O)NCc1nc(NC2CCN(C)CC2)c2cc(OC)c(OCCCN3CCCC3)cc2n1	64 nM	
C=CC(=O)NCc1nc(NC2CCN(C)CC2)c2cc(OC)c(OCCCN3CCCC3)cc2n1	60 nM	
COc1cc2c(NC3CCN(C)CC3)nc(CNC(=O)C3(C#N)CC3)nc2cc1OCCCN1CCCC1	111 nM	
C=C(C)C(=O)NCc1nc(NC2CCN(C)CC2)c2cc(OC)c(OCCCN3CCCC3)cc2n1	116 nM	
CCC(=O)N(C)c1nc(NC2CCN(C)CC2)c2cc(OC)c(OCCCN3CCCC3)cc2n1	5.8 nM	Activity [4]: Active; IC50 (PANC-1): 14800 nM; inhibition (MDA-MB-231 [5]): inactive; inhibition (MDA-MB-231 [6]): Tde; IC50 (MDA-MB-231 [3]): 9730 nM
C=CC(=O)N(C)c1nc(NCC2CCN(C)CC2)c2cc(OC)c(OCCCN3CCCC3)cc2n1	11 nM	IC50 (PANC-1): > 40000 nM; IC50 (MDA-MB-231 [3]): > 40000 nM
COc1cc2c(NC3CCN(C)CC3)nc(CNC(=O)/C=C/CN(C)C)nc2cc1OCCCN1CCCC1	7.6 nM	
C=CC(=O)NCc1cc(NC2CCN(C)CC2)c2cc(OC)c(OCCCN3CCCC3)cc2n1	0.49 nM	
CC#CC(=O)NCc1nc(NC2CCN(C)CC2)c2cc(OC)c(OCCCN3CCCC3)cc2n1	95 nM	
C=CC(=O)N(C)c1nc(NC2CCN(C(C)C)CC2)c2cc(OC)c(OCCCN3CCCC3)cc2n1	4.4 nM	IC50 (PANC-1): 8220 nM; IC50 (MDA-MB-231 [3]): 9600 nM
CC#CC(=O)NCc1cc(NC2CCN(C)CC2)c2cc(OC)c(OCCCN3CCCC3)cc2n1	0.42 nM	
C/C=C/C(=O)NCc1nc(NC2CCN(C)CC2)c2cc(OC)c(OCCCN3CCCC3)cc2n1	74 nM	
C=C(C)C(=O)NCc1cc(NC2CCN(C)CC2)c2cc(OC)c(OCCCN3CCCC3)cc2n1	0.53 nM	
C=CC(=O)N(C)c1nc(NC2CCN(Cc3ccccc3)CC2)c2cc(OC)c(OCCCN3CCCC3)cc2n1	5.9 nM	IC50 (PANC-1): 520 nM; half-life at 0.1 µM [2]: 4.72 min; IC50 (MDA-MB-231 [3]): 460 nM
C/C=C/C(=O)NCc1cc(NC2CCN(C)CC2)c2cc(OC)c(OCCCN3CCCC3)cc2n1	0.52 nM	
CNc1nc2cc(OCCCN3CCCC3)c(OC)cc2n1C(C)C		IC50 [7]: < 100 nM; IC50 [8]: < 100 nM
COc1cc2c(NC3CCN(C)CC3)nc(CNC(=O)CCl)nc2cc1OCCCN1CCCC1	5.7 nM	
C=CC(=O)N(C)c1nc(NC2CCN(CCC)CC2)c2cc(OC)c(OCCCN3CCCC3)cc2n1	3.9 nM	IC50 (PANC-1): 4750 nM; IC50 (MDA-MB-231 [3]): 5480 nM

Reference: ChEMBL document CHEMBL5338815 (J Med Chem, 2023)
